How the values were obtained:
[1] = tested on: collagen antibody-induced arthritis; assay: Collagen antibody-induced arthritis (CAIA) mouse model, mice transduced with Ad-Rubicon; assay type: in vivo
Procedure: Collagen antibody-induced arthritis mouse model was induced as previously described. Mice received a single‐dose intravenous injection of anti-type II collagen antibody cocktail (8 mg/mouse) (Arthrogen‐CIA Arthritogenic Monoclonal Antibody, no. 53010; Chondrex) on day −3 and an intraperitoneal injection of 100 μg of lipopolysaccharide on day 0 and were then monitored for the indicated times. Mice were sacrificed under anesthesia for the indicated times and knee joints were isolated. All animal-related procedures were reviewed and approved by the Institutional Animal Care and Use Committee of the Hanyang University (protocol 2017–0219). All animal experiments were performed in accordance with Korean Food and Drug Administration guidelines. […]
Figure 5 TIPTP protects Rubicon-expressed CAIA mice mortality. […] (a) The survival of CAIA mice was monitored for 15 days and mortality was measured for n = 10 mice per group. […] (b) Clinical arthritis score and swelling of paws, or (c) representative H&E staining of the ankle joints of each group were determined at 9 days of CAIA (left). […] Statistical significance was determined by two-way analysis of variance (ANOVA) with Tukey’s posttest; **P < 0.01 compared with Ad-Vector+Vehicle (a). […]
Arthritis mice were evaluated for disease progression three times a week as follows ^1,2. […]

human monocytes = assay: LPS-primed, ATP-activated human monocytes (co-IP, ELISA, immunoblot); assay type: cell-based
Procedure: The mouse macrophage cell line RAW264.7 (ATCC TIB-71; American Type Culture Collection) and HEK293T (ATCC-11268) cells were maintained in DMEM (Invitrogen) containing 10% FBS (Invitrogen), sodium pyruvate, nonessential amino acids, penicillin G (100 IU/ml), and streptomycin (100 μg/ml). Transient transfections were performed with Lipofectamine 3000 (Invitrogen), or calcium phosphate (Clontech), according to the manufacturer’s instructions. Raw264.7 stable cell lines were generated using a standard selection protocol with 2 μg/ml of puromycin. Mouse primary bone marrow derived-macrophages (BMDMs) were isolated from C57BL/6 mice and cultured in DMEM for 3–5 days in the presence of 25 ng/ml recombinant macrophage colony stimulating factor (R&D Systems, 416-ML, Minneapolis, MN, USA), as described previously. Human adherent monocytes were prepared from PBMCs donated by healthy subjects, as described previously. […]
Cell culture supernatants, mice sera and synovial fluid were analyzed for cytokine content using the BD OptEIA ELISA set (BD Pharmingen) for the detection of TNF-α, IL-6, IL-1β, and IL-18. […]
Figure 6 TIPTP is active for cells from healthy humans or patients with RA. […] (b) Culture supernatants were harvested and analyzed for cytokines by ELISA (left). […] (e) Culture supernatants were harvested and analyzed for cytokines by ELISA (left). […]

C[C@@H](Oc1cccc(-n2cc3c(n2)CCCC3)c1)C(=O)Nc1nnc(C(F)(F)F)s1 [TIPTP, (R)-2-(3-(4,5,6,7-tetrahydro-2H-indazol-2-yl)phenoxy)-N-(5-(trifluoromethyl)-1,3,4-thiadiazol-2-yl)propanamide]
survival rate ([1]; CAIA mice transduced with Ad-Rubicon, TIPTP every 2 days intraperitoneal, monitored 15 days (Fig. 5a)): 90% | arthritic clinical scores, paw swelling, and histopathological evaluation vs vehicle ([1]; Rubicon-expressing and vector CAIA mice (Fig. 5b,c)): markedly decreased | IL-1β and IL-18 cytokines, caspase-1 activation, IL-1β and IL-18 maturation (human monocytes; human blood-derived monocytes, LPS/ATP, dose-dependent (Fig. 6b)): inhibited | p22phox–Rubicon interaction (human monocytes; normal human monocytes, LPS/ATP, 0.01, 0.1, 1 μM, dose-dependent (Fig. 6a)): inhibited

Source: article PMC7067850, “Identification of highly potent and selective inhibitor, TIPTP, of the p22phox-Rubicon axis as a therapeutic agent for rheumatoid arthritis” (Scientific Reports, 2020)
